Results: publication PMC10283052, “Intranasal delivery of mitochondrial protein humanin rescues cell death and promotes mitochondrial function in Parkinson's disease” (Theranostics, 2023)
Entries after “also recorded” stand apart in the source; their conditions may differ.

How the values were obtained:
[1] = tested on: SH-SY5Y cells; test: Real-time qPCR of mitochondrial rRNA and humanin transcripts; format: cell-based, human; settings: IMT1 co-treated with HN for 24 h, dose-dependent
Protocol: For real-time qPCR, total RNA was extracted using TRIzol reagent (Thermo Fisher Scientific). cDNA was synthesized using a cDNA synthesis kit (Bioneer Corporation), according to the manufacturer's protocol. The mRNA levels were analyzed in a LightCycler 96 (Roche, Basel, Switzerland) using SYBR Green I master mix and SensiFAST™ SYBR® No-ROX Kit (Bioline, Paris, France). B2M (beta-2-microglobulin) gene expression was used to normalize gene expression data. The primer sequences used in this experiment are in Table S2.

[2] = tested on: differentiated PC12 cells; test: Pathway inhibitors on HN effects in MPP+-challenged differentiated PC12 cells; format: cell-based, rat; settings: for neuroprotective effect of HN against MPP+ neurotoxicity (MTT viability): inhibitor 2 h before HN 10 μM, then MPP+ 1 mM 24 h, MK2206 1 μM, wortmannin 1 μM, U0126 10 μM
Protocol: For neuronal differentiation of PC12 cells, the cells were grown in DMEM containing 1.5% horse serum, 1.5% FBS, 1% P/S, and 100 ng/mL nerve growth factor (NGF, Thermo Fisher Scientific) every 2 days. PC12 cells were differentiated for 7 days and used for subsequent experiments.
Mouse brain tissue samples and cells were homogenized in radioimmunoprecipitation assay (RIPA) buffer (Cell Signaling, Danvers, MA, USA) in the presence of a protease and phosphatase inhibitor cocktail (Thermo Fisher Scientific). The samples were sonicated on ice, and the supernatant was collected after centrifugation at 4°C at 10,000 g for 5 min. The protein samples were loaded and separated using Tris-glycine SDS-PAGE. To detect the HN peptide, the proteins were separated into three layers of tricine SDS-PAGE, as previously described. The separated proteins were transferred to nitrocellulose membranes (GenDEPOT, Barker, TX, USA). The membranes were blocked for 0.5 h, followed by incubation with appropriate primary antibodies overnight at 4°C. The primary antibodies used were as follows: anti-tyrosine hydroxylase (Cat # P40101, Pel-Freez Biologicals), anti-HN (Cat # RA19000, Neuromics), anti-β-actin (Cat # GTX109639, GeneTex, Irvine, CA, USA), and anti-GAPDH (Cat # AM4300, Thermo Fisher Scientific). After washing, the membranes were incubated with horseradish peroxidase-labeled secondary antibodies (Cell Signaling Technology) and visualized using enhanced chemiluminescence reagents (DoGen, Seoul, South Korea). The results were analyzed using the ImageJ densitometry system. In order to detect circulating humanin in human plasma samples, proteins were extracted by trichloroacetic acid (TCA) precipitation. Loading of an equal amount of protein was confirmed by Coomassie staining of plasma samples which were depleted of albumin by Minute™ Albumin Depletion Reagent (Invent Biotechnologies, Plymouth, MN, USA).
Following treatment with the aforementioned reagents, the cells were washed and treated with 3-(4,5-dimethylthiazol-2-yl)-2,5-diphenyl-tetrazolium bromide (MTT, Thermo Fisher Scientific). Briefly, the cells were seeded in a 96-well plate at a density of 5 × 10^3 cells/well. After 24 h, a neurotoxin 1-methyl-4-phenylpyridinium (MPP^+) (Sigma-Aldrich) was applied to induce toxicity in neuronal cells. Next, the cells were incubated with MTT for 4 h, and formazan crystals were solubilized using DMSO. Absorbance was measured using a multi-plate reader at a wavelength of 570 nm, and the viability of the cells was recorded as a percentage of the control.

[3] = tested on: transgenic mouse model of AD; settings: without altering Aβ production; cited from earlier work
Excerpt: Humanin is the first peptide representing a novel group of naturally occurring bioactive peptides encoded by the mitochondrial genome, termed MDPs. Since its discovery in 2001 [12], humanin has been proposed as a potential protective peptide for neurological disorders, cardiovascular diseases, and metabolic dysfunction. The central role of humanin in the protective response has been extensively studied in AD [13]. Maftei et al., using affinity mass spectrometry, identified that humanin can directly bind to amyloid β (Aβ), which subsequently disrupts the oligomerization of Aβ [57]. Further ...

[4] = tested on: SH-SY5Y cells; test: FITC-HN immunofluorescence in cells; format: cell-based, human
Protocol: For HN treatment, HN was synthesized as per Fmoc-based SPPS at GL Biochem (Shanghai, China). The lyophilized synthesized HN peptide or HN peptide conjugated with fluorescein isothiocyanate (FITC-HN) was dissolved in Dimethyl sulfoxide (DMSO) and incubated at 37 ℃ with mild stirring (100 rpm) for 1 h to prepare a 10 mM stock solution. The stock solutions were kept at -20 ℃ until use.
For staining, the cells were seeded on PDL-coated glass slides and treated as indicated above. The samples were fixed using methanol and permeabilized using 0.1% Triton X-100 in PBS. […] Fluorescent images were captured at the Neuroscience Translational Research Solution Center (Busan, South Korea) using an LSM 700 confocal microscope (Zeiss, Jena, Germany). The mitochondrial network morphology was assessed using the FIJI/ImageJ software as described previously.

[5] = Brain delivery after intranasal FITC-HN; format: in vivo, mouse
Protocol: For intranasal HN treatment, the synthetic HN peptide was delivered according to a procedure reported by Capsoni et al. The synthetic HN peptide was diluted in ddH2O to a concentration of 0.1 and 5 mg/kg for mice (total volume of 40 μL) at 37 ℃ with mild stirring. The mice were held firmly in one hand in a supine position with their head at 90°. Synthetic HN was administered in the form of 5-μL drops over 20 min in alternating nostrils every 3 min. After administration, the heads of the mice were held in the same position to prevent loss of the applied solution from the nares.
To stain the mouse brain tissue samples, transcardial perfusion was performed using PBS and 4% paraformaldehyde in PBS. The brain and trigeminal ganglia were removed, post-fixed using 4% paraformaldehyde in PBS, and stored in a 30% sucrose solution at 4 ℃ until they sank. Coronal sections were prepared (thickness: 10 µm) using a sliding microtome. After blocking with 5% BSA, the samples were incubated with the appropriate primary antibody as mentioned above. […] To enhance immune signals in immunohistochemistry, a Vectastain Elite ABC Standard Kit (Vector Laboratories) was used, as per the manufacturer's instructions. The stained sections were scanned using a Pannormic MIDI scanner (3[…], Budapest, Hungary) at the Neuroscience Translational Research Solution Center. Unbiased stereological analyses were performed as previously described. […] Fluorescent images were captured at the Neuroscience Translational Research Solution Center (Busan, South Korea) using an LSM 700 confocal microscope (Zeiss, Jena, Germany). Mitochondrial network morphology was further assessed using the FIJI/ImageJ software as described previously.
A commercially available ELISA kit (MyBioSource, San Diego, CA, USA) was used to measure plasma and brain HN levels. To measure the protein levels of HN, brain homogenates (100 μg protein/well) and 100 μL of plasma samples were loaded onto competitive ELISA plates according to the manufacturer's instructions. The absorbance was measured using a microplate reader (Molecular Devices, Sunnyvale, CA, USA) at a wavelength of 450 nm.

[6] = wortmannin 1 μM pre-treatment, HN 10 μM, MPP+ 1 mM

For `Cc1ccccc1-c1cc(=O)oc2cc(OC(C)C(=O)N(C)C)ccc12` (stereo not shown) [IMT1, reference compound], the “humanin transcripts induced by HN peptide” value [1] was “markedly attenuated humanin transcripts”.

For `NC1(c2ccc(-c3nc4ccn5c(=O)[nH]nc5c4cc3-c3ccccc3)cc2)CCC1` [MK-2206], the “neuroprotective effect of HN against MPP+ neurotoxicity (MTT viability)” value (“neuroprotective effect of HN” for short) [2] was “abolished the neuroprotective effect of HN”.

For `N#CC(=C(/N)Sc1ccccc1N)/C(C#N)=C(/N)Sc1ccccc1N` [U0126], the “neuroprotective effect of HN” value [2] was “did not alter cell viability”.

For `COC[C@H]1OC(=O)c2coc3c2[C@@]1(C)C1=C(C3=O)[C@@H]2CCC(=O)[C@@]2(C)C[C@H]1OC(C)=O` [wortmannin], the “neuroprotective effect of HN” value [2] was “abolished the neuroprotective effect of HN”, the “induction of intracellular humanin by HN treatment, western blot” value ([2]; wortmannin 1 μM pre-treatment 1 h, HN 10 μM, 24 h, MPP+-exposed cells) was “significantly inhibited; also recorded: blocked the induction of HN expression” and the HN-enhanced mitochondrial mass [2, 6] was “significantly blocked the impact of HN on enhancing mitochondrial mass”. For the same compound, the “HN-promoted mitochondrial biogenesis, western blot” value [2, 6] was “significantly blocked”.

For “S14G-HN: a highly potent human derivative (MAPRGFSCLLLLTGEIDLPVKRRA; Humanin; UniProt Q8IVG9 1-24, looked up, variant S14G)”, the “total amyloid plaque burden in cerebellum, hippocampus and cortex” value [3] is listed as “significantly reduced the total amyloid plaque burden”.

In the case of “fluorescein isothiocyanate-conjugated humanin [FITC-HN]”, the “intracellular humanin signal (antibody staining)” value ([4]; 24 h FITC-HN treatment, untreated cells show weak signal) is reported as “strong signal of intracellular humanin”, the “intracellular FITC fluorescence signal” value ([4]; 24 h after FITC-HN treatment, suggests degradation of the FITC-HN peptide) is reported as “no detectable fluorescent signal” and the “intracellular FITC fluorescence signal” value ([4]; within 30 min of FITC-HN treatment, confocal immunofluorescence) is reported as “strong intracellular fluorescence signal”. For the same compound, the “FITC-HN distribution in trigeminal nerve endoneurium” value ([5]; cross-sections of trigeminal nerves after intranasal administration, transgenic PD mice) was “diffuse to punctate in the perineural space of the endoneurium”, the “FITC-HN signal in trigeminal nerve perineurium region” value ([5]; cross-sections of trigeminal nerves, compared with endoneurium) was “more prominent FITC-HN signal” and the “duration of widespread brain distribution after intranasal administration” value ([5]; human α-Syn transgenic PD mice, ELISA of brain regions (CB, OB, ST, HIP, SN, CTX)) was “up to 1 h”. The “time after intranasal injection at which FITC-HN is detectable in midbrain (VTA, aqueduct)” value ([5]; human α-Syn-overexpressing transgenic PD mice, fluorescence imaging) was no more than 30 min and the “FITC-HN localisation in brain parenchyma” value ([5]; within 30 minutes after intranasal treatment, GFAP staining) was “found in microvascular endothelial cells surrounded by astrocytic endfeet”.
